Measurements from patent US7247438B1, “Methods of identifying agents which enhance caspase activity” (priority 1997, dated 2007).
Entries after “also recorded” stand apart in the source; their conditions may differ. Peptide text beside a SMILES is read from it. * marks the point of attachment. Cbz = O=C(OCc1ccccc1)*; CH2F = FC*

Tests used:
[1] = system: thymic caspase (~17 kD subunit); test: Western blot of thymic lysates: binding of biotinylated substrate to activated thymic caspase and competition; design: species or system mouse; conditions: for blocking of biotin-DEVDamk binding to the antigen-activated caspase: pretreatment of thymic lysates with excess (100-fold molar, FIG. 2D) of inhibitor
[2] = target: T1, recombinant Mch2a (caspase-6) (Homo sapiens, UniProt P55212); test: Western blot: binding of biotinylated substrate to recombinant Mch2a; conditions: FIG. 2B; 15 minutes with 2 mM biotin-DEVDamk
T1 construct: made in house
T1 sequence (P55212 24-179 limits assumed): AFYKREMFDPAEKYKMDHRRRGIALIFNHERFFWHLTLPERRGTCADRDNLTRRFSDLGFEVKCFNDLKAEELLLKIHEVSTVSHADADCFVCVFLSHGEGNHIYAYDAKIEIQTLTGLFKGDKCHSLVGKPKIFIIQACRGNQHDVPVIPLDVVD
T1 sequence (P55212 194-293 limits assumed): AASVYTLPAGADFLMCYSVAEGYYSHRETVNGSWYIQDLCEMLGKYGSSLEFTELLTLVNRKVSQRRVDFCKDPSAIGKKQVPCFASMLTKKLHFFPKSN

[3] = target: T2, recombinant Yama/caspase-3 (Homo sapiens, UniProt P42574); test: Western blot: binding of biotinylated substrate to recombinant Yama; conditions: FIG. 2B; 15 minutes with 2 mM biotin-DEVDamk
T2 construct: made in house
T2 sequence (P42574 29-175 limits assumed): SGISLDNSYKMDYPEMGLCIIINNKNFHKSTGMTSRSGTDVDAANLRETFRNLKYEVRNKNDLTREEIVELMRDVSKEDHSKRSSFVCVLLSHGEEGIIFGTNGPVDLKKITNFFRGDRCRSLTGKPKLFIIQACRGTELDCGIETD
T2 sequence (P42574 176-277 limits assumed): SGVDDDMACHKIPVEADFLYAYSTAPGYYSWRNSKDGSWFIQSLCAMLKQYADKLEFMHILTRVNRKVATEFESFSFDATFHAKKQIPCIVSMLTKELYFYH

[4] = system: DP thymocytes in FTOC of N15 TCR tg RAG-2−/− H-2b mice; format: cell-based, mouse; conditions: for effect on antigen (VSV8)-induced depletion of DP thymocytes: N15 FTOC, 2 hours with 100 μM inhibitor followed by 18 hours with 10 μM VSV8
[5] = system: activated thymic caspase in N15 tg RAG-2−/− H-2b FTOC; format: cell-based, mouse; conditions: for effect of pretreatment on VSV8-induced caspase activation (biotin-DEVDamk staining): FTOC, inhibitor pretreatment, then VSV8 4 hours
[6] = system: thymocytes in N15 tg RAG-2−/− H-2b FTOC; format: cell-based, mouse
[7] = system: thymocytes in non-tg RAG-2−/− FTOC; format: cell-based, mouse
[8] = system: activated thymic caspase in adult N15 tg RAG-2−/− H-2b mice; conditions: mouse, in vivo
thymic caspase = test: caspase activation in thymic lysates of adult mice after tail vein peptide injection (Western blot); conditions: mouse, in vivo
[9] = system: CD4+ CD8+ DP thymocytes in FTOC of C57BL/6 mice; test: glucocorticoid (dexamethasone)-induced DP thymocyte death in FTOC, FACS analysis; format: cell-based, mouse
[10] = system: CD4+ CD8+ DP thymocytes in FTOC of C57BL/6 mice; test: anti-CD3ε mAb (2C11)-induced deletion of DP thymocytes in FTOC, FACS analysis; format: cell-based, mouse; design: effect on anti-CD3ε (2C11) mAb-induced deletion of DP thymocytes: dose or concentration left out as unconfirmed
[11] = system: Drosophila Schneider cells; conditions: added to Drosophila Schneider cells; cited from earlier work
[12] = system: Rat thymocytes in suspension; conditions: cited from earlier work
caspase-1 = target: T3, caspase-1 (Homo sapiens, UniProt P29466); conditions: caspase-1 versus caspase-3; cited from earlier work
T3 sequence (P29466 120-297 limits assumed): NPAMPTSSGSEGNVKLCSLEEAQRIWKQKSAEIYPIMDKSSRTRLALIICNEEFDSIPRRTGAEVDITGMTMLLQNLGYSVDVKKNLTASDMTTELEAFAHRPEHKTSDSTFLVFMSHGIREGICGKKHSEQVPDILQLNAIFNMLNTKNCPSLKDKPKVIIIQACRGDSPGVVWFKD
T3 sequence (P29466 317-404 limits assumed): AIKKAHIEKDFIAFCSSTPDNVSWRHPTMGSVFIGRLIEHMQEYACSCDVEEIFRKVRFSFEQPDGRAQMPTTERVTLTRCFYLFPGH

Cc1cccc(C)c1C(=O)OCC(=O)C(CC(=O)O)NC(=O)[C@@H](NC(=O)[C@H](CCC(=O)O)NC(=O)[C@H](CC(=O)O)NC(=O)CCCC[C@@H]1SC[C@@H]2NC(=O)N[C@@H]21)C(C)C (some centres unmarked) [biotin-DEVDamk, N-(Biotinylaspartylglutamylvalinyl)aspartic acid [(2,6-Dimethylbenzoyl)oxy]methyl Ketone]
detection of / affinity for the activated thymic caspase by biotinylated substrate [1]: highest affinity | binding of biotinylated substrate to recombinant Mch2a (caspase-6) [2]: bind | binding of biotinylated substrate to recombinant Yama/caspase-3 [3]: bind

FAPGNYPAL [SEV9]
depletion/death of DP thymocytes induced by peptide (in words) [4]: does not result in thymocyte death

COC(=O)CC(NC(=O)C(C)NC(=O)C(NC(=O)OCc1ccccc1)C(C)C)C(C)=O (centres unmarked) [zVADmk, N-(Z-Valinylalanyl)aspartic acid methyl ketone, b-methyl ester]
effect of pretreatment on VSV8-induced caspase activation (biotin-DEVDamk staining) [5]: not | blocking of biotin-DEVDamk binding to the antigen-activated caspase [1]: does not block | number of TdT (TUNEL) positive apoptotic cells in histological sections (in words) [6]: levels of TdT positive cells similar to cultures treated with VSV8 alone; also recorded: no effect | effect on antigen (VSV8)-induced depletion of DP thymocytes [4]: has no effect; also recorded: fails to block

RGYVYQGL [VSV8]
biotin-DEVDamk staining (activation of thymic caspase) in FTOC sections [5]: widespread biotin-DEVDamk staining throughout the cortex | TdT positive cells mm2, non-tg [7]: 9 mm2 | TdT positive cells mm2, N15tg #1 [6]: 429 mm2 | TdT positive cells mm2, N15tg #2 [6]: 456 mm2 | TdT positive cells mm2, N15tg #3 [6]: 441 mm2 | number of TdT (TUNEL) positive apoptotic cells in histological sections (in words) [6]: obvious increase | biotin-DEVDamk staining of thymic sections [8]: widespread biotin-DEVDamk staining | depletion/death of DP thymocytes induced by peptide (in words) [4]: massive depletion | percent CD4+ CD8+ DP thymocytes [4]: 21 | time to induction of an active caspase after tail vein injection (thymic caspase): ≤ 2 h

C[C@@H]1C[C@H]2[C@@H]3CCC4=CC(=O)C=C[C@]4(C)[C@@]3(F)[C@@H](O)C[C@]2(C)[C@@]1(O)C(=O)CO [Dexamethasone]
percentage of DP thymocytes ([9]; FTOC, control 74%): 19%

COC(=O)C[C@H](NC(=O)[C@H](C)NC(=O)[C@@H](NC(=O)OCc1ccccc1)C(C)C)C(=O)CF [zVADfmk, N-benzyloxycarbonyl-Val-Ala-Asp-fluoromethylketone, b-methyl ester] (Cbz-Val-Ala-Asp(OMe)-CH2F)
effect of pretreatment on VSV8-induced caspase activation (biotin-DEVDamk staining) [5]: blocked | effect on dexamethasone (glucocorticoid)-induced death/deletion of DP thymocytes ([9]; 2-hour pretreatment with 100 μM zVADfmk): protects; also recorded: blocked | blocking of biotin-DEVDamk binding to the antigen-activated caspase [1]: blocks binding; also recorded: prevents binding | number of TdT (TUNEL) positive apoptotic cells in histological sections (in words) [6]: reduces the number of TdT+ cells to that of the control; also recorded: blocked | effect on anti-CD3ε (2C11) mAb-induced deletion of DP thymocytes ([10]; 2-hour preincubation, harvested 18 hours later): inhibited; also recorded: blocked | effect of agent alone on percentage of DP thymocytes in FTOC ([10]; FTOC C57BL/6, no 2C11): does not alter | effect on apoptosis induced by expression of REAPER protein [11]: blocks the induction of apoptosis | effect on glucocorticoid-induced death [12]: blocked | effect on antigen (VSV8)-induced depletion of DP thymocytes [4]: completely blocks; also recorded: blocked; also recorded: blocks depletion

CC(=O)N[C@@H](Cc1ccc(O)cc1)C(=O)N[C@H](C(=O)N[C@@H](C)C(=O)N[C@H](C=O)CC(=O)O)C(C)C [Ac-YVAD-CHO]
fold lower concentration to inhibit caspase-1 than required to inhibit caspase-3 (caspase-1): ~10,000 fold
